In US7091026B2, “Artificial endonuclease” (University of Iowa Research Foundation, priority 2001, dated 2006):
Where no end group is shown, it is not given here.

Key:
[1] = system: supercoiled pBR322 plasmid DNA; assay: DNA gel shift assay (agarose gel electrophoresis); format: binding; conditions: 5–25 μM ligand, in words
Description: DNA Gel Shift Assays. The affinity of EuP3, EuP2, and each free peptide for supercoiled plasmid DNA was examined by agarose gel electrophoresis. Plasmid (pBR322, New England Biolabs, Inc.) was incubated for 15 minutes at room temperature with increasing concentrations of each ligand (5–25 μM), prior to the addition of loading dye. Each lane contained 1 μg plasmid (50 μM base pairs) in 10 mM Tris buffer at pH 8.0.

[2] = molecular target: P4a (34-residue synthetic chimeric peptide: alpha2 and alpha3 of engrailed, minus the last turn of alpha2 and the beta-turn, with calmodulin loop I); assay: measured dissociation constant, method not stated; self-association of the Eu-bound peptide

## [Cl][Eu]([Cl])[Cl] [EuCl3]
[1]
  gel shift / affinity for supercoiled plasmid DNA: not
[1]; listed as free metal
  gel shift / affinity for supercoiled plasmid DNA: not seen

## TERRRFDKDGNGYISAAELRHVKIWFQNKRAKIK (also: also used as Eu(III)-bound form (EuP4a))
[2]
  Kdim (dimerization constant): > 300 µM
